Results published in PMC7366380, “Discovery of a Potent and Selective Covalent Inhibitor and Activity-Based Probe for the Deubiquitylating Enzyme UCHL1, with Antifibrotic Activity” (Journal of the American Chemical Society, 2020).
Where “and” joins values, the source holds several entries; their conditions need not be identical. Equal entries are not always repeated.

What was measured:
Test in all cases: In-cell proteome-wide competitive ABPP, HEK293: other DUBs and proteins
[1] = molecular target: DUBs and other proteins in HEK293 cells (Homo sapiens, UniProt P54578); conditions: USP14; 20 nM ABP 2; DMSO subtracted; replicates A-C
[2] = molecular target: DUBs and other proteins in HEK293 cells (Homo sapiens, UniProt Q96BN8); conditions: replicates A-C
[3] = molecular target: T1, DUBs and other proteins in HEK293 cells (Homo sapiens, UniProt Q9Y4E8); conditions: replicates A-C
T1 sequence (Q9Y4E8 1-981): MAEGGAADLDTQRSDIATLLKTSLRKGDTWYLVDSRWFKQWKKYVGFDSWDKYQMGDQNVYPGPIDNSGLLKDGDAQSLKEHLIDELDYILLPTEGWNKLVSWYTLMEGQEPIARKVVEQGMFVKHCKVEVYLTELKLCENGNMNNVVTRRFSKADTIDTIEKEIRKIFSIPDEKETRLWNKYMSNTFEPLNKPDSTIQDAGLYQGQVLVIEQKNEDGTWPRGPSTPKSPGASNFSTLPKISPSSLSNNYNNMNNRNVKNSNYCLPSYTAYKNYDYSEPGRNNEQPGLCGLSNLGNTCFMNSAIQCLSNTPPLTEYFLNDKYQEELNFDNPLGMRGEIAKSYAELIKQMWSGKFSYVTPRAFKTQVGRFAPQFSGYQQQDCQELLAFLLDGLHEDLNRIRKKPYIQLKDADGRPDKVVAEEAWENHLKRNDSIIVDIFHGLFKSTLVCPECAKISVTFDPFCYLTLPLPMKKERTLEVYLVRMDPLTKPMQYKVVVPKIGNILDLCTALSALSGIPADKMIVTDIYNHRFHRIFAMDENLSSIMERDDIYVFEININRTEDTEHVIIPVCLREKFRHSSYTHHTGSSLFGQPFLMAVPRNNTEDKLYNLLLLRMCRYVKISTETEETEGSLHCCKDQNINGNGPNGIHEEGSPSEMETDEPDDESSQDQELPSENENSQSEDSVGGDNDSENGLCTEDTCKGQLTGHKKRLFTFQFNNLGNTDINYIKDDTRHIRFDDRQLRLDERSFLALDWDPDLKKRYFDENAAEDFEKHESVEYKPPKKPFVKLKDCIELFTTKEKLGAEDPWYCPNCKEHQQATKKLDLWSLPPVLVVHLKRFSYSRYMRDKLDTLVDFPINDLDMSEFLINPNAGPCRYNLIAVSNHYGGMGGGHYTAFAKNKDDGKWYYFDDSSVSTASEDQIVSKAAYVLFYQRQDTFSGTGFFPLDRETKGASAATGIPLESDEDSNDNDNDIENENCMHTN

[4] = 20 nM ABP 2 alone, DMSO substract (FC)

Chain of DUBs and other proteins in HEK293 cells (Homo sapiens, UniProt P54578) (P54578 whole entry): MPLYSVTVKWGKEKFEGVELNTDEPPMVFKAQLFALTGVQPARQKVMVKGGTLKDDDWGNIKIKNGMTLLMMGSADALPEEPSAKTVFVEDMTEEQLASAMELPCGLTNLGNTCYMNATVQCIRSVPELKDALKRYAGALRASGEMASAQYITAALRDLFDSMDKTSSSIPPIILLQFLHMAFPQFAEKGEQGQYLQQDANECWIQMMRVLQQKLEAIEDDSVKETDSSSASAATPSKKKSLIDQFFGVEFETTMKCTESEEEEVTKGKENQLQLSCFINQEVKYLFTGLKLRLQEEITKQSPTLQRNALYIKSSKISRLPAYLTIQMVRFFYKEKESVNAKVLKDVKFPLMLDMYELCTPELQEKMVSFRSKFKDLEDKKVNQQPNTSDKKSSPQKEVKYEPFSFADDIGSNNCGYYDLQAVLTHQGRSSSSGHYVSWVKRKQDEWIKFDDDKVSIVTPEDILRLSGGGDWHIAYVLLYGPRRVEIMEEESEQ
Chain of DUBs and other proteins in HEK293 cells (Homo sapiens, UniProt Q96BN8) (Q96BN8 whole entry): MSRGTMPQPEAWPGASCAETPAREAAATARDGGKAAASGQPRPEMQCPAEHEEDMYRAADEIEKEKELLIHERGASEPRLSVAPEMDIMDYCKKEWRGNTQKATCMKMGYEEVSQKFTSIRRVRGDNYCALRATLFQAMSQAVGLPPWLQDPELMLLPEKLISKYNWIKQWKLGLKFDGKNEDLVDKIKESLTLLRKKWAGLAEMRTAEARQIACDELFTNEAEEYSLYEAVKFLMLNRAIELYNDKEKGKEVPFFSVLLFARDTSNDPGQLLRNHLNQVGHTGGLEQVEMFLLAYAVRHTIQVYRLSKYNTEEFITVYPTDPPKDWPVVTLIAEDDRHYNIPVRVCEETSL

Log2 reporter intensity values: OTULIN [2, 4]: 0.9844 | Log2 reporter intensity values: USP15 [3, 4]: 1.045 and 1.025 and 1.159
Structure (SMILES): C#Cc1cnc2[nH]cc(-c3cccc4c3CCN4C(=O)[C@@H]3CCCN3C#N)c2c1 [Compound 2]
Log2 reporter intensity values [1]: 0.1674 and 0.2186 and 0.2005 and 0.1633 and 0.1489 | Log2 reporter intensity values ([2]; OTULIN, 20 nM ABP 2, DMSO subtracted): 0.01067 and 0.1122 and -0.02265 and 0.006896 and 0.08034 and -0.01611 | Log2 reporter intensity values ([3]; USP15, 20 nM ABP 2, DMSO subtracted): 0.06335 and 0.03549 and 0.2127 and 0.04463 and 0.02465 and 0.1586
